In the assay the target is human M4 receptor (Homo sapiens (Human), UniProt P08173). The experiment in a line: Radioligand (tritiated N-methylscopolamine) binding assay, M4. How it is done:
Binding affinity (Ki) of compounds was measured by inhibition of radioligand binding to membranes from CHO cells expressing human M1, M2, M3, M4 and M5 receptors. Membranes were prepared by nitrogen cavitation and differential centrifugation as previously described (Hoare et al., Mol. Pharmacol. 2003 March; 63(3): 751-65). The radioligand employed was tritiated N-methylscopolamine, used at a concentration of 1.5 nM. A dose-response of twelve concentrations of compound was used, ranging from 10 μM to […]. The assay buffer was 50 mM HEPES, 100 mM NaCl, 5 mM MgCl2, 1 mM ethylenediaminetetraacetic acid, pH-adjusted to pH 7.4. Membranes, radioligand and compound were incubated together for 90 minutes at 37° C., in a total volume of 150 μl in a 96-well plate. Receptor-bound radioligand was then collected by harvesting the assay over glass fiber filters pretreated with polyethylenimine to trap the cell membranes, using rapid vacuum filtration. Harvesting and radioactivity counting was conducted as previously described (see, e.g., Hoare et al., Mol. Pharmacol. 2003 63(3):751-65); Erratum at Mol. Pharmacol. 2005 July; 68(1): 260).

[1] abbreviates: Ki against the M4 receptor, membranes from CHO cells expressing human M4, tritiated N-methylscopolamine 1.5 nM, read-out: Ki.

pKi: −log10 of the molar value. Like-named read-outs stand apart in the source and are kept apart here.

human M4 receptor, sequence (P08173 whole entry): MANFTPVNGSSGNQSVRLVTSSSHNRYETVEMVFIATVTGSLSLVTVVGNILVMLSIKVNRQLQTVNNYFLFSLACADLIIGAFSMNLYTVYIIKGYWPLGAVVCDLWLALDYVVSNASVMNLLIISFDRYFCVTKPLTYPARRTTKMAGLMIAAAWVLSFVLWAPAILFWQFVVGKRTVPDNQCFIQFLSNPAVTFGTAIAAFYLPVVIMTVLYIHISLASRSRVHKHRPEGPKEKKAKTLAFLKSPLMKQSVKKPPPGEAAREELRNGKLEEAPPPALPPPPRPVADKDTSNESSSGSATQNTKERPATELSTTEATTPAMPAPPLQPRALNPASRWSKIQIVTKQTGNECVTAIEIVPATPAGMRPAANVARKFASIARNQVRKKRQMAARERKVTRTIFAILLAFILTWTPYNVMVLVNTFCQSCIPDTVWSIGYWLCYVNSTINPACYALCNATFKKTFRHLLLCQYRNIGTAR

Broadly, the pKi is the Ki on a negative log10 scale, so that one unit is a factor of ten. As to `Cc1c(C(=O)NCCC2CCN(Cc3ccccc3)CC2)cnc2cc(-c3cccs3)nn12` [17-7, N-[2-(1-benzylpiperidin-4-yl)ethyl]-7-methyl-2-(thiophen-2-yl)pyrazolo[1,5-a]pyrimidine-6-carboxamide], the pKi under setting [1] is 6.00 to 7.00.
For `COC1(C(=O)NCCC2CCN(Cc3ccccc3)CC2)CCN(c2ccc(OC(F)(F)F)cc2)CC1` [10-38, N-[2-(1-benzylpiperidin-4-yl)ethyl]-4-methoxy-1-[4-(trifluoromethoxy)phenyl]piperidine-4-carboxamide], the pKi under setting [1] was 7.00 to 8.00.
Consider `COc1ncccc1-c1cc2ncc(C(=O)NCCC3CCN(Cc4ccccc4)CC3)c(C)n2n1` [18-14], for which, under setting [1], the pKi is 7.00 to 8.00.
For the molecule `C[C@@H]1CN(c2cc(F)c(F)c(F)c2)CCN1C(=O)NCCC1CCN(Cc2ccccc2OC(F)F)CC1` [6-13, (2R)-N-[2-(1-{[2-(difluoromethoxy)phenyl]methyl}piperidin-4-yl)ethyl]-2-methyl-4-(3,4,5-trifluorophenyl)piperazine-1-carboxamide], the pKi under setting [1] was 7.00 to 8.00.
Turning to `O=C(NCCC1CCN(Cc2ccccc2)CC1)N1CCN(c2ccc(OC(F)(F)F)cc2)CC1` [8-8, N-[2-(1-benzylpiperidin-4-yl)ethyl]-4-[4-(trifluoromethoxy)phenyl]piperazine-1-carboxamide], the pKi under setting [1] is 7.00 to 8.00.
As to `C[C@@H]1CN(c2ncc(C#N)c(NCC(F)(F)F)n2)C[C@H](C)N1C(=O)NCCC1CCN(Cc2ccccc2)CC1` [5-4, (2S,6R)-N-[2-(1-benzylpiperidin-4-yl)ethyl]-4-{5-cyano-4-[(2,2,2-trifluoroethyl)amino]pyrimidin-2-yl}-2,6-dimethylpiperazine-1-carboxamide], the pKi under setting [1] was 7.00 to 8.00.
Take `COc1ccc(N2CCN(C(=O)NCCC3CCN(Cc4ccccc4)CC3)CC2C)cc1` (stereo not shown) [4-56, N-[2-(1-benzylpiperidin-4-yl)ethyl]-4-(4-methoxyphenyl)-3-methylpiperazine-1-carboxamide]: under setting [1], the pKi was 6.00 to 7.00.
The same measure, in the same setting: under `O=C(NCCN1CCC(Cc2ccccc2)CC1)c1ccn2cc(-c3ccc(OC(F)(F)F)cc3)nc2c1` [9-68, N-[2-(4-benzylpiperidin-1-yl)ethyl]-2-[4-(trifluoromethoxy)phenyl]imidazo[1,2-a]pyridine-7-carboxamide] stands 6.00 to 7.00.
Turning to `C[C@@H]1CN(c2cc(F)c(F)c(F)c2)CCN1C(=O)NCCC1CCN(CC2CCCCC2)CC1` [6-6, (2R)-N-{2-[1-(cyclohexylmethyl)piperidin-4-yl]ethyl}-2-methyl-4-(3,4,5-trifluorophenyl)piperazine-1-carboxamide], the pKi under setting [1] was 7.00 to 8.00.
On to `N#Cc1cc(Cl)ccc1N1CCN(C(=O)NCCC2CCN(Cc3ccccc3)CC2)CC1` [8-7, N-[2-(1-benzylpiperidin-4-yl)ethyl]-4-(4-chloro-2-cyanophenyl)piperazine-1-carboxamide], for which the pKi under setting [1] is 6.00 to 7.00.
Consider `Cc1ccc(N2CCN(C(=O)NCCC3CCN(Cc4ccccc4)CC3)[C@H](C)C2)cn1` [4-9, (2R)-N-[2-(1-benzylpiperidin-4-yl)ethyl]-2-methyl-4-(6-methylpyridin-3-yl)piperazine-1-carboxamide], for which, under setting [1], the pKi is 6.00 to 7.00.
For `C[C@@H]1CN(c2cccc(F)c2F)CCN1C(=O)NCCC1CCN(Cc2ccccc2)CC1` [4-37, (2R)-N-[2-(1-benzylpiperidin-4-yl)ethyl]-4-(2,3-difluorophenyl)-2-methylpiperazine-1-carboxamide], under setting [1], the pKi was 7.00 to 8.00.
In the case of `CC(c1ccccc1)N1CCC(CCNC(=O)N2CCN(c3cc(F)c(F)c(F)c3)C[C@H]2C)CC1` (stereo partly drawn) [6-14, (2R)-2-methyl-N-{2-[1-(1-phenylethyl)piperidin-4-yl]ethyl}-4-(3,4,5-trifluorophenyl)piperazine-1-carboxamide], the pKi under setting [1] was 7.00 to 8.00.
Consider `Cc1nc(CN2CCC(CCNC(=O)C3CCN(c4ccc(OC(F)(F)F)cc4)CC3)CC2)cs1` [11-4, N-(2-{1-[(2-methyl-1,3-thiazol-4-yl)methyl]piperidin-4-yl}ethyl)-1-[4-(trifluoromethoxy)phenyl]piperidine-4-carboxamide], for which the pKi under setting [1] was 6.00 to 7.00.
`N#Cc1ccc(N2CCN(C(=O)NCCC3CCN(Cc4ccccc4)CC3)CC2)cc1` [8-27, N-[2-(1-benzylpiperidin-4-yl)ethyl]-4-(4-cyanophenyl)piperazine-1-carboxamide]: the pKi under setting [1] is 6.00 to 7.00.
Consider `N#Cc1ccc(-n2cnc(C(=O)NCCC3CCN(Cc4ccccc4)CC3)c2)nc1` [9-75, N-[2-(1-benzylpiperidin-4-yl)ethyl]-1-(5-cyanopyridin-2-yl)-1H-imidazole-4-carboxamide], for which the pKi under setting [1] was 6.00 to 7.00.
As for `COc1ccc(N2CCC(C(=O)NCCC3CCN(Cc4ccccc4)CC3)CC2)cc1` [10-60, N-[2-(1-benzylpiperidin-4-yl)ethyl]-1-(4-methoxyphenyl)piperidine-4-carboxamide], the pKi under setting [1] is 6.00 to 7.00.
Regarding `N#CC1(c2ccccc2)CCN(C(=O)NCCC2CCN(Cc3ccccc3)CC2)CC1` [8-33, N-[2-(1-benzylpiperidin-4-yl)ethyl]-4-cyano-4-phenylpiperidine-1-carboxamide], the pKi was 6.00 to 7.00.
Turning to `O=C(OCCC1CCN(Cc2ccccc2)CC1)N1CCC(c2ccccc2)CC1` [12-8, 2-(1-benzylpiperidin-4-yl)ethyl 4-phenylpiperidine-1-carboxylate], under setting [1], the pKi is 6.00 to 7.00.
Consider `C[C@@H]1CN(c2ccccc2)CCN1C(=O)NCCC1CCN(Cc2ccccc2)CC1` [4-47, (2R)-N-[2-(1-benzylpiperidin-4-yl)ethyl]-2-methyl-4-phenylpiperazine-1-carboxamide], for which the pKi under setting [1] was 7.00 to 8.00.
For the molecule `Cc1[nH]c(-c2ccc(Cl)cc2Cl)nc1C(=O)NCCC1CCN(Cc2ccccc2)CC1` [9-61, N-[2-(1-benzylpiperidin-4-yl)ethyl]-2-(2,4-dichlorophenyl)-5-methyl-1H-imidazole-4-carboxamide], the pKi under setting [1] is 6.00 to 7.00.
Still for that read-out and setting: next, `COc1cccc(CN2CCC(CCNC(=O)N3[C@H](C)CN(c4ncc(C#N)cn4)C[C@@H]3C)CC2)c1` [6-59, (2R,6S)-4-(5-cyanopyrimidin-2-yl)-N-(2-{1-[(3-methoxyphenyl)-methyl]piperidin-4-yl}ethyl)-2,6-dimethylpiperazine-1-carboxamide]: 7.00 to 8.00; `O=C(Cc1ccc(OCc2ccccc2)cc1)NCCC1CCN(Cc2ccccc2)CC1` [9-43, 2-[4-(benzyloxy)phenyl]-N-[2-(1-benzylpiperidin-4-yl)ethyl]acetamide]: 6.00 to 7.00; `CC(c1ccccc1)N1CCC(CCNC(=O)c2ccc(OCc3ccccc3)cc2)CC1` (stereo not shown) [11-14, 4-(benzyloxy)-N-{2-[1-(1-phenylethyl)piperidin-4-yl]ethyl}benzamide]: 6.00 to 7.00.
The same measure, in the same setting: under `N#Cc1cc(N2CCC(O)(C(=O)NCCC3CCN(Cc4ccccc4)CC3)CC2)ccc1OC(F)(F)F` [10-36, N-[2-(1-benzylpiperidin-4-yl)ethyl]-1-[3-cyano-4-(trifluoromethoxy)phenyl]-4-hydroxypiperidine-4-carboxamide] stands 7.00 to 8.00.
Regarding `N#Cc1ccc(-c2ccc(C(=O)NCCC3CCN(Cc4ccccc4)CC3)cc2)cc1` [9-30, N-[2-(1-benzylpiperidin-4-yl)ethyl]-4-(4-cyanophenyl)benzamide], under setting [1], the pKi is 7.00 to 8.00.
The same measure, in the same setting: next, `O=C(OCCC1CCN(Cc2ccccc2)CC1)N1CCC(O)(c2ccccc2)CC1` [12-7, 2-(1-benzylpiperidin-4-yl)ethyl 4-hydroxy-4-phenylpiperidine-1-carboxylate]: 6.00 to 7.00.
In the case of `Cn1cccc1CN1CCC(CCNC(=O)C2CCN(c3ccc(OC(F)(F)F)cc3)CC2)CC1` [11-15, N-(2-{1-[(1-methyl-1H-pyrrol-2-yl)methyl]piperidin-4-yl}ethyl)-1-[4-(trifluoromethoxy)phenyl]piperidine-4-carboxamide], under setting [1], the pKi was 6.00 to 7.00.
In the case of `O=C(NCC[C@H]1CCN(Cc2ccccc2)C1)C1CCN(c2ccc(OC(F)(F)F)cc2)CC1` [9-49, N-{2-[(3S)-1-benzylpyrrolidin-3-yl]ethyl}-1-[4-(trifluoromethoxy)phenyl]piperidine-4-carboxamide], the pKi under setting [1] was 6.00 to 7.00.
With `O=C(NCCC1CCN(CC2CCCCC2)CC1)C1CCN(c2ccc(OC(F)(F)F)cc2)CC1` [11-21, N-{2-[1-(cyclohexylmethyl)piperidin-4-yl]ethyl}-1-[4-(trifluoromethoxy)phenyl]piperidine-4-carboxamide], the pKi under setting [1] is 6.00 to 7.00.
With `CN(CCNC(=O)C1CCN(c2cccc(OC(F)(F)F)c2)CC1)[C@@H]1CCN(Cc2ccccc2)C1` [9-22, N-(2-{[(3R)-1-benzylpyrrolidin-3-yl](methyl)amino}ethyl)-1-[3-(trifluoromethoxy)phenyl]piperidine-4-carboxamide], the pKi under setting [1] is 7.00 to 8.00.
`C[C@@H]1CN(c2ncc(C#N)cn2)CCN1C(=O)NCCC1CCN(Cc2ccccc2)CC1` [5-13, (2R)-N-[2-(1-benzylpiperidin-4-yl)ethyl]-4-(5-cyanopyrimidin-2-yl)-2-methylpiperazine-1-carboxamide]: the pKi under setting [1] was 7.00 to 8.00.
For the molecule `C[C@@H]1CN(c2cc(F)c(F)c(F)c2)CCN1C(=O)NCC[C@H]1CCN(Cc2ccccc2)C1` [7-5, (2R)-N-{2-[(3S)-1-benzylpyrrolidin-3-yl]ethyl}-2-methyl-4-(3,4,5-trifluorophenyl)piperazine-1-carboxamide], under setting [1], the pKi is 6.00 to 7.00.
As for `Cc1cc(C(=O)NC2CC2)nc(N2CCN(C(=O)NCCC3CCN(Cc4ccccc4)CC3)[C@H](C)C2)n1` [27-14], the pKi under setting [1] was 6.00 to 7.00.

The record behind these values is patent US11033539B2, “Compounds of formulas (VII), (VIII), (IX), (XI), (XII), (XIII), and (XIV) as muscarinic receptor 4(M4) antagonists for treating neurological diseases” (Neurocrine Biosciences, Inc., priority 2015, dated 2021).
